Data as given in PubChem BioAssay (NCI).
“And” between values parts separate entries of the source, which are not always exact repeats. Equal values may be shown once.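 Tested at 5 concentrations; 48 h exposure; 96-well plates; endpoints linearly interpolated, else capped at highest concentration. Abbreviation: GI50, concentration required for 50% inhibition of growth. TGI: total growth inhibition.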

Columns and labels:
Experiment in all cases: inhibition of tumour cell growth, NCI panel, 48 h
[1] = test system: RXF-631 renal
[2] = test system: KM20L2 colon
[3] = test system: HOP-18 NSCLC
[4] = test system: DMS 114 small cell lung
[5] = test system: MDA-MB-231 breast
[6] = test system: NCI/ADR-RES ovarian
[7] = test system: DU-145 prostate
[8] = test system: MDA-N
[9] = test system: MDA-MB-435

Compound	TGI [1]	TGI [2]	TGI [3]	TGI [4]	further results
C=CCC1[C@@H](C(C)(C)C(C(C)=O)C(=O)C(=O)OC)OC(C(C)(C)C)N1C(=O)OC (stereo partly drawn)	> 100 µM	> 100 µM	> 100 µM	–	–
CC(CC(=O)Nc1ccc(NC(=O)CC(C)N=NC(N)=S)cc1)N=NC(N)=S (stereo not drawn)	> 100 µM	> 100 µM	> 100 µM	> 100 µM	–
C#CCC(N)(CO)C(=O)O (stereo not drawn)	–	–	> 100 µM	> 100 µM	–
Cl[Si]1(Cl)Oc2ccccc2O[Si](Cl)(Cl)Oc2ccccc2O1	> 100 µM	> 100 µM	–	6.03 µM	–
Cc1cc2c(Br)cc(Br)c(O)c2nc1C(=O)c1ccccc1	–	82.5 µM	70.4 µM	97.7 µM	TGI [5]: 78.5 µM; TGI [6]: > 100 µM; TGI [7]: > 100 µM; TGI [8]: 96.3 µM; TGI [9]: > 100 µM
CC1(Cc2ccccc2)NC(=S)NC1=O (stereo not drawn)	> 100 µM	> 100 µM	8.35 µM	> 100 µM	–
COc1c(Br)cc(Br)c(OC)c1-c1[nH]c(Br)c(Br)c1Br	21.9 µM	22.4 µM	9.05 µM	19.4 µM	–
CC1(c2ccccc2)CC(c2ccccc2)=NO1 (stereo not drawn)	–	–	> 100 µM	> 100 µM	–
O=C1C=C(O)c2[nH]c(=O)ccc2C1=O	–	> 100 µM	–	–	–
Cc1nnc(N/N=C(/C(=O)C(C#N)c2ccccc2)C(C#N)c2ccccc2)n1N (stereo not drawn)	–	> 100 µM	28.6 µM	13.4 µM	–
CC/C(=N\NS(=O)(=O)c1ccccc1)c1ccccc1	> 100 µM	> 100 µM	> 100 µM	–	–
O=c1c(Cl)c(Cl)cnn1CCc1ccncc1	–	36.2 µM	34.2 µM	29 µM	–
OC(c1ccc(Br)cc1)(c1cccs1)C1CC1 (stereo not drawn)	–	–	–	–	TGI [5]: 39.6 µM; TGI [6]: 60.5 µM; TGI [7]: 81.6 µM; TGI [8]: 41.8 µM; TGI [9]: 36.1 µM
CC1(C)CC[C@H](C2=CC(=O)c3c(O)ccc(O)c3C2=O)O1	3.98 µM	–	3.39 µM and 3.15 µM and 0.703 µM	2.21 µM and 3.14 µM and 0.47 µM	TGI [5]: 2.79 µM and 8.31 µM; TGI [6]: 12 µM; TGI [7]: 6.28 µM and 4.38 µM; TGI [8]: 1.6 µM and 3.78 µM; GI50 [9]: 0.33 µM; TGI [9]: 0.837 µM; GI50 [4]: 1.63 µM; GI50 [3]: 1.83 µM and 1.72 µM and 0.265 µM
OC(CN1CC1)C(O)CN1CC1 (stereo not drawn)	–	–	–	–	GI50 [5]: > 50 µg/mL; TGI [5]: > 50 µg/mL; GI50 [6]: > 50 µg/mL; TGI [6]: > 50 µg/mL; GI50 [7]: > 50 µg/mL; TGI [7]: > 50 µg/mL; GI50 [8]: > 50 µg/mL; TGI [8]: > 50 µg/mL; GI50 [9]: > 50 µg/mL; TGI [9]: > 50 µg/mL
COC(=O)/C(C#N)=C1\CCC(C(=O)OC)N1C (stereo not drawn)	> 100 µM	> 100 µM	–	> 100 µM	–
CC(=O)OC1COC(n2c(=S)n(-c3ccccc3)c(=O)c3cc(Br)ccc32)C(OC(C)=O)C1OC(C)=O (stereo not drawn)	–	> 100 µM	> 100 µM	> 100 µM	–
CC(C)c1ccccc1NC(=O)/C(Cl)=C1/Sc2ccccc2NC1=O	> 100 µM	59.7 µM	–	53.4 µM	–
Cc1ccc(S(=O)(=O)N/N=C(\c2nc3ccc([N+](=O)[O-])cc3[nH]c2=O)C(O)c2ccccc2Cl)cc1 (stereo not drawn)	> 100 µM	> 100 µM	> 100 µM	> 100 µM	–
O=C1C2=C(c3ccccc31)C(c1ccccc1Cl)N1C(=O)CCSC1=N2 (stereo not drawn)	> 100 µM	> 100 µM	–	> 100 µM	–
Cc1ccc2nc3c(Cl)c(C)c(=O)cc-3sc2c1	–	> 100 µM	–	> 1 µM and 76 µM	GI50 [2]: > 100 µM; GI50 [4]: 25.4 µM
COc1cccc(/C=C2\CCC(C)(CN(C)C)C2=O)c1 (stereo not drawn)	–	> 100 µM	> 100 µM	> 100 µM	–
CCOC(=O)c1ccc(N[C@@H]2c3cc4c(cc3C(C3=CC(=O)C(=O)C(OC)=C3)[C@H]3C(=O)OCC32)OCO4)cc1 (stereo partly drawn)	10 µM	32.1 µM	–	6.89 µM	–
O=c1ncccn1C1C=C(CO)C(O)C1O (stereo not drawn)	–	> 50 µM	> 50 µM	> 50 µM	–

Compound	TGI [1]	TGI [2]	TGI [3]	TGI [4]	further results
COc1cc2cnc3c4ccccc4ccc3c2cc1OC	–	> 100 µM	–	> 100 µM	–
N=S(c1ccccc1)c1ccccc1[N+](=O)[O-] (stereo not drawn)	–	41.5 µM	> 100 µM	32.7 µM	–
COC1OC(C)C(OCc2ccccc2)C(OS(=O)(=O)c2ccc(C)cc2)C1OS(=O)(=O)c1ccc(C)cc1 (stereo not drawn)	–	> 100 µM	> 100 µM	> 100 µM	–
C=CCSc1nc2ccccc2c(=O)n1Cc1ccco1	–	–	–	–	TGI [5]: > 100 µM; TGI [6]: > 100 µM; TGI [7]: > 100 µM; TGI [8]: > 100 µM; TGI [9]: > 100 µM
CCN(CC)CC(=O)N1CCc2c([nH]c3ccccc23)C1c1cccnc1 (stereo not drawn)	> 100 µM	> 100 µM	> 100 µM	> 100 µM	–
CCOC(=O)/C(=C/c1cccc(OC)c1)N(CC)CC	–	> 100 µM	–	> 100 µM	–
NC(=O)/C=C/C(=O)O	–	–	> 5000 µM	> 5000 µM	–
O=C1c2cccnc2-c2nc(-c3ccncc3)cc3c2c1nc1ccccc13	–	–	–	–	GI50 [5]: 14.3 µM; TGI [5]: 50.1 µM; GI50 [6]: 9.63 µM; TGI [6]: 24.8 µM; GI50 [7]: 20.6 µM; TGI [7]: 42.7 µM; GI50 [8]: 19.9 µM; TGI [8]: 35.9 µM; GI50 [9]: 15.5 µM; TGI [9]: 30.1 µM
COc1ccc(Nc2nc3ccccc3nc2-c2cccs2)cc1	–	> 100 µM	> 100 µM	> 100 µM	–
CCOC(=O)C(=O)Nc1ccccc1C(F)(F)F	–	> 100 µM	> 100 µM	–	–
CC(=O)[CH-]C(C)=O.[CH2-]C.[CH2-]C.[Tl+3]	–	> 100 µM	> 100 µM	> 100 µM	GI50 [2]: > 100 µM; GI50 [4]: > 100 µM; GI50 [3]: > 100 µM
COc1ccccc1-c1cc(=O)c2ccc(C)nc2[nH]1	–	–	–	–	TGI [5]: > 100 µM; TGI [6]: > 100 µM; TGI [7]: > 100 µM; GI50 [8]: 20.1 µM; TGI [8]: 41.5 µM; GI50 [9]: 22 µM; TGI [9]: 48.7 µM
CC1(C)OC2COC3(CNO)OC(C)(C)OC3C2O1 (stereo not drawn)	–	–	> 100 µM	> 100 µM	–
O=C1C(SCCO)=C(SCCO)C(=O)c2ccccc21	–	–	–	–	TGI [5]: 4.15 µM; TGI [6]: 2.53 µM; TGI [8]: 0.314 µM; TGI [9]: 0.348 µM
C=CCO/N=C/c1cc(NC(=S)c2ccoc2C)ccc1Cl	–	–	–	–	TGI [5]: 30.1 µM; TGI [6]: 29 µM; TGI [7]: 27.8 µM; TGI [8]: 32.2 µM; TGI [9]: 54.4 µM
C[n+]1c2ccccc2cc2c(CNC(CCCN=C(N)N)C(=O)O)cccc21 (stereo not drawn)	12.6 µM	12.3 µM	15.5 µM	1.16 µM and 3.36 µM	GI50 [2]: 0.346 µM; GI50 [4]: 1.62 µM
CCCCCCCCCCCCCC(=O)OCC1OC(=O)CC1O (stereo not drawn)	> 100 µM	> 100 µM	67.3 µM	> 100 µM	–
CNC(SC)=C1C(=O)OC(C)(C)OC1=O	–	> 100 µM	> 100 µM	> 100 µM	–
CC1=C(C(=O)Nc2ccccc2C)C(/C=C/c2ccccc2)C(C(=O)Nc2ccccc2C)=C(C)N1	> 100 µM	> 100 µM	> 100 µM	–	–
Cc1ccc2c(c1)Sc1ccc(N=NN(C)C)cc1N2C	–	–	–	–	TGI [5]: > 100 µM; TGI [6]: > 100 µM; TGI [7]: > 100 µM; TGI [8]: > 100 µM; TGI [9]: > 100 µM
CC(=O)[O-].CC(=O)[O-].CC(=O)[O-].CC(=O)[O-].[Mo+2].[Mo+2]	–	> 100 µM	> 100 µM	–	GI50 [2]: > 100 µM; GI50 [3]: > 100 µM
O=C/C(=C(/Cl)c1ccc(O)cc1)c1ccccc1	> 31.6 µM	> 59.8 µM	> 31.6 µM	31.2 µM	TGI [7]: > 100 µM
NC(N)=NS(=O)(=O)c1ccc(NC(=O)c2cccc3c(Nc4ccc(S(N)(=O)=O)cc4)c4ccccc4nc23)cc1	–	> 100 µM	> 100 µM	> 100 µM	–
